For the assay, the target named is T1, human XIAP_BIR3 domain purified protein (Homo sapiens, UniProt P98170).
T1 construct: purchased R & D
Put plainly: XIAP binding inhibitory activity, HTRF method with b-Smac ligand. The settings on record: for IC50: second symbol of the cell, read-out: XIAP binding 50% inhibitory concentration (IC50 value); for inhibition at 3 µM: test compound 3 μM, first symbol of the cell, read-out: XIAP binding inhibition rate when the concentration of the test compound is 3 μM. The method in brief: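 HTRF competition: human XIAP BIR3 and C-terminally biotinylated Smac peptide AVPIAQK, each diluted to 90 nM before addition, in HEPES pH 7.5 buffer with NaCl, BSA, Triton X-100. Eu-cryptate anti-His/streptavidin-XL665 detection after ≥4 h at room temperature; inhibition % from 665/615 ratio versus no-compound control.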
Background: TR-FRET usually uses a lanthanide donor and a delayed reading to cut background.

Counter-ions that a name gives are not always drawn. Bounds are passed on as bounds.

T1 sequence (P98170 252-356 limits assumed): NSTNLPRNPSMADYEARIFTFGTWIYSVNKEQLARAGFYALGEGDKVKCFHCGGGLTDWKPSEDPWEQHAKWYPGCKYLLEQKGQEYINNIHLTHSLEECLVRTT

`CN[C@@H](C)C(=O)N[C@H](C(=O)N1CCN(C(=O)c2c(C(=O)NCCOCCOCCOc3ccc(NC(=O)C[C@@H]4N=C(c5ccc(Cl)cc5)c5c(sc(C)c5C)-n5c(C)nnc54)cc3)c3cc(F)c(F)cc3n2C)CC1)C1CCCCC1` [Example 78, N-(2-(2-(2-(4-(2-((S)-4-(4-Chlorophenyl)-2,3,9-trimethyl-6H-thieno[3,2-f][1,2,4]triazolo[4,3-a][1,4]diazepin-6-yl)acetamido)phenoxy)ethoxy)ethoxy)ethyl)-2-(4-((S)-2-cyclohexyl-2-((S)-2-(methylamino)propanamido)acetyl)piperazine-1-carbonyl)-5,6-difluoro-1-methyl-1H-indole-3-carboxamide hydrochloride]: the IC50 was 0.3 to 3 µM.

In the case of `CCOc1cc(C(=O)N2CCN(C(=O)[C@@H](NC(=O)[C@H](C)NC)C3CCCCC3)CC2)n(C)n1` [Example 12, (S)-N-((S)-1-cyclohexyl-2-(4-(3-ethoxy-1-methyl-1H-pyrazole-5-carbonyl)piperazin-1-yl)-2-oxoethyl)-2-(methylamino)propanamide], the inhibition at 3 µM was more than 25%.

On to `CN[C@@H](C)C(=O)N[C@H](C(=O)N1CCN(C(=O)c2c(OCCOCCO)c3cc(F)c(F)cc3n2C)CC1)C1CCCCC1` [Example 50, (S)—N—((S)-1-Cyclohexyl-2-(4-(5,6-difluoro-3-(2-(2-hydroxyethoxy)ethoxy)-1-methyl-1H-indole-2-carbonyl)piperazin-1-yl)-2-oxoethyl)-2-(methylamino)propanamide], for which the IC50 was in the range of 3 to 30 µM.

Turning to `CN[C@@H](C)C(=O)N[C@H](C(=O)N1CCN(C(=O)c2c(C(=O)NCCOCCOCCNC(=O)C[C@@H]3N=C(c4ccc(Cl)cc4)c4c(sc(C)c4C)-n4c(C)nnc43)c3ccc(OC)cc3n2C)CC1)C1CCCCC1` [Example 72, N-(2-(2-(2-(2-((S)-4-(4-Chlorophenyl)-2,3,9-trimethyl-6H-thieno[3,2-f][1,2,4]triazolo[4,3-a][1,4]diazepin-6-yl)acetamido)ethoxy)ethoxy)ethyl)-2-(4-((S)-2-cyclohexyl-2-((S)-2-(methylamino)propanamido)acetyl)piperazine-1-carbonyl)-6-methoxy-1-methyl-1H-indole-3-carboxamide Hydrochloride], the IC50 was less than 0.3 µM.

As to `CN[C@@H](C)C(=O)N[C@H](C(=O)N1CCN(C(=O)c2ccc3cc(C)cn3c2)CC1)C1CCCCC1` [Example 20, (S)-N-((S)-1-cyclohexyl-2-(4-(2-methylindolizine-6-carbonyl)piperazin-1-yl)-2-oxoethyl)-2-(methylamino)propanamide], the inhibition at 3 µM is more than 75%.

For the molecule `COc1ccc2cc(C(=O)N3CCN(C(=O)CN4C[C@@H](C)NC[C@@H]4CN4CCOC[C@H]4C)CC3)n(C)c2c1` [Example 36, 1-(4-(6-Methoxy-1-methyl-1H-indole-2-carbonyl)piperazin-1-yl)-2-((2R,5R)-5-methyl-2-(((R)-3-methylmorpholino)methyl)piperazin-1-yl)ethan-1-one], the inhibition at 3 µM was more than 75%.

With `CN[C@@H](C)C(=O)N[C@H](C(=O)N1CCN(C(=O)c2ccc3nn(C)cc3c2)CC1)C1CCCCC1` [Example 22, (S)-N-((S)-1-cyclohexyl-2-(4-(2-methyl-2H-indazole-5-carbonyl)piperazin-l-yl)-2-oxoethyl)-2-(methylamino)propanamide], the inhibition at 3 µM is 25 to 50%.

Turning to `CN[C@@H](C)C(=O)N[C@H](C(=O)N1CCN(C(=O)c2cc3cc(F)c(F)cc3n2C)C[C@H]1C)C1CCCCC1` [Example 56, (S)—N—((S)-1-Cyclohexyl-2-((R)-4-(5,6-difluoro-1-methyl-1H-indole-2-carbonyl)-2-methylpiperazin-1-yl)-2-oxoethyl)-2-(methylamino)propanamide Trifluoroacetate], the IC50 lay in the range of 3 to 30 µM.

Turning to `COc1ccc2cc(C(=O)N3CCN(C(=O)CN4C[C@@H](C)NC[C@@H]4CN(C)CCOCCO)CC3)n(C)c2c1` [Example 40, 2-((2R,5R)-2-(((2-(2-Hydroxyethoxy)ethyl) (methyl)amino)methyl)-5-methylpiperazin-1-yl)-1-(4-(6-methoxy-1-methyl-1H-indole-2-carbonyl)piperazin-1-yl)ethan-1-one Hydrochloride], the inhibition at 3 µM was more than 75%.

In the case of `CN[C@@H](C)C(=O)N[C@H](C(=O)N1CCN(C(=O)c2cc3ccnn3cc2F)CC1)C1CCCCC1` [Example 6, (S)-N-((S)-1-cyclohexyl-2-(4-(6-fluoropyrazolo[1,5-a]pyridine-5-carbonyl)piperazin-1-yl)-2-oxoethyl)-2-(methylamino)propanamide], the inhibition at 3 µM was more than 25%.

Consider `CN[C@@H](C)C(=O)N[C@H](C(=O)N1CCN(C(=O)c2cc3cc(F)c(F)cc3n2CCOCCOCCO)CC1)C1CCCCC1` [Example 47, (S)—N—((S)-1-Cyclohexyl-2-(4-(5,6-difluoro-1-(2-(2-(2-hydroxyethoxy)ethoxy)ethyl)-1H-indole-2-carbonyl)piperazin-1-yl)-2-oxoethyl)-2-(methylamino)propanamide], for which the IC50 is 3 to 30 µM.

Take `CN[C@@H](C)C(=O)N[C@H](C(=O)N1CCN(C(=O)c2c(C(=O)NCCOCCOCCOCCNC(=O)C[C@@H]3N=C(c4ccc(Cl)cc4)c4c(sc(C)c4C)-n4c(C)nnc43)c3ccc(OC)cc3n2C)CC1)C1CCCCC1` [Example 73, N-(1-((S)-4-(4-chlorophenyl)-2,3,9-trimethyl-6H-thieno[3,2-f][1,2,4]triazolo[4,3-a][1,4]diazepin-6-yl)-2-oxo-6,9,12-trioxa-3-azatetradecan-14-yl)-2-(4-((S)-2-cyclohexyl-2-((S)-2-(methylamino)propanamido)acetyl)piperazine-1-carbonyl)-6-methoxy-1-methyl-1H-indole-3-carboxamide]: the IC50 is less than 0.3 µM.

Consider `CN[C@@H](C)C(=O)N[C@H](C(=O)N1CCN(C(=O)c2cc3cc(F)ccc3n2C)CC1)C1CCCCC1` [Example 15, (S)-N-((S)-1-cyclohexyl-2-(4-(5-fluoro-1-methyl-1H-indole-2-carbonyl)piperazin-1-yl)-2-oxoethyl)-2-(methylamino)propanamide], for which the inhibition at 3 µM is more than 75%.

`CN[C@@H](C)C(=O)N[C@H](C(=O)N1CCN(C(=O)c2cc3ccccn3c2)CC1)C1CCCCC1` [Example 7, (S)-N-((S)-1-cyclohexyl-2-(4-(indolizine-2-carbonyl)piperazin-1-yl)-2-oxoethyl)-2-(methylamino)propanamide]: the inhibition at 3 µM was more than 75%.

For the molecule `CN[C@@H](C)C(=O)N[C@H](C(=O)N1CCN(C(=O)c2c(OCCOCCOCCO)c3cc(F)c(F)cc3n2C)CC1)C1CCCCC1` (stereo in doubt) [Example 62, (S)—N—((S)-1-Cyclohexyl-2-(4-(5,6-difluoro-3-(2-(2-(2-hydroxyethoxy)ethoxy)ethoxy)-1-methyl-1H-indole-2-carbonyl)piperazin-1-yl)-2-oxoethyl)-2-(methylamino)propanamide], the inhibition at 3 µM lay within 25 to 50%.

Consider `CN[C@@H](C)C(=O)N[C@H](C(=O)N1CCN(C(=O)c2cc3ccc(F)cc3n2CCOC)CC1)C1CCCCC1` [Example 53, (S)—N—((S)-1-cyclohexyl-2-(4-(6-fluoro-1-(2-methoxyethyl)-1H-indole-2-carbonyl)piperazin-1-yl)-2-oxoethyl)-2-(methylamino)propanamide], for which the IC50 is 3 to 30 µM.

In the case of `CN[C@@H](C)C(=O)N[C@H](C(=O)N1CCN(C(=O)c2ccn3nccc3c2F)CC1)C1CCCCC1` [Example 5, (S)-N-((S)-1-cyclohexyl-2-(4-(4-fluoropyrazolo[1,5-a]pyridine-5-carbonyl)piperazin-1-yl)-2-oxoethyl)-2-(methylamino)propanamide], the inhibition at 3 µM is 25 to 50%.

Consider `CN[C@@H](C)C(=O)N[C@H](C(=O)N1C2CC1CN(C(=O)c1cc3cc(F)c(F)cc3n1C)C2)C1CCCCC1` [Example 60, (2S)-N-((1S)-1-cyclohexyl-2-(3-((5,6-difluoro-1-methyl-1H-indol-2-yl)carbonyl)-3,6-diazabicyclo[3.1.1]heptan-6-yl)-2-oxoethyl)-2 (methylamino)propanamide], for which the IC50 was in the range of 3 to 30 µM.

As for `CN[C@@H](C)C(=O)N[C@H](C(=O)N1CCN(C(=O)c2c(C(=O)N3CC(OC)C3)c3ccc(OC)cc3n2C)CC1)C1CCCCC1` [Example 31, (S)—N—((S)-1-Cyclohexyl-2-(4-(6-methoxy-3-(3-methoxyazetidine-1-carbonyl)-1-methyl-1H-indole-2-carbonyl)piperazin-1-yl)-2-oxoethyl)-2-(methylamino)propanamide Hydrochloride], the inhibition at 3 µM was 50 to 75%.

In the case of `CN[C@@H](C)C(=O)N[C@H](C(=O)N1CCN(C(=O)c2cc3cc(F)c(F)cc3n2CCOCCOCCOCCO)CC1)C1CCCCC1` [Example 48, (S)—N—((S)-1-Cyclohexyl-2-(4-(5,6-difluoro-1-(2-(2-(2-(2-hydroxyethoxy)ethoxy)ethoxy)ethyl)-1H-indole-2-carbonyl)piperazin-1-yl)-2-oxoethyl)-2-(methylamino)propanamide], the IC50 was in the range of 3 to 30 µM.

With `CN[C@@H](C)C(=O)N[C@H](C(=O)N1CCN(C(=O)c2c(C(=O)N3CCC[C@H]3COC)c3ccc(OC)cc3n2C)CC1)C1CCCCC1` [Example 29, (S)—N—((S)-1-Cyclohexyl-2-(4-(6-methoxy-3-((S)-2-(methoxymethyl)pyrrolidine-1-carbonyl)-1-methyl-1H-indole-2-carbonyl)piperazin-1-yl)-2-oxoethyl)-2-(methylamino)propanamide Hydrochloride], the inhibition at 3 µM is 50 to 75%.

On to `CN[C@@H](C)C(=O)N[C@H](C(=O)N1CCN(C(=O)c2ccn3nccc3c2)CC1)C1CCCCC1` [Example 2, (S)-N-((S)-1-cyclohexyl-2-oxo-2-(4-(pyrazolo[1,5-a]pyridine-5-carbonyl)piperazin-1-yl)ethyl)-2-(methylamino)propanamide], for which the inhibition at 3 µM fell in the range of 25 to 50%.

The record behind these values is patent US12202829B2, “Heterocyclic compound” (FIMECS, Inc., priority 2018, dated 2025).
